Reference: patent publication US9771369B2, “Compounds and methods for kinase modulation, and indications therefor” (Plexxikon Inc., priority 2014, dated 2017)

Target: c-Kit kinase (Homo sapiens (Human), UniProt P10721)
Experiment: c-Kit biochemical assay (AlphaScreen kinase activity)
How it was run: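 AlphaScreen: c-Kit phosphorylates biotin-(E4Y)3 (100 nM) at 10 μM ATP, pH 7.2 HEPES buffer with Mg/Mn, 5% DMSO, 1 h room temperature; streptavidin donor and PY30 acceptor beads detect product. Second format: 100 μM ATP, 30 nM biotin-(E4Y)10, pH 7.5. IC50 from 8-point 1:3 dilution curves.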

Sequence of c-Kit kinase (P10721 26-976): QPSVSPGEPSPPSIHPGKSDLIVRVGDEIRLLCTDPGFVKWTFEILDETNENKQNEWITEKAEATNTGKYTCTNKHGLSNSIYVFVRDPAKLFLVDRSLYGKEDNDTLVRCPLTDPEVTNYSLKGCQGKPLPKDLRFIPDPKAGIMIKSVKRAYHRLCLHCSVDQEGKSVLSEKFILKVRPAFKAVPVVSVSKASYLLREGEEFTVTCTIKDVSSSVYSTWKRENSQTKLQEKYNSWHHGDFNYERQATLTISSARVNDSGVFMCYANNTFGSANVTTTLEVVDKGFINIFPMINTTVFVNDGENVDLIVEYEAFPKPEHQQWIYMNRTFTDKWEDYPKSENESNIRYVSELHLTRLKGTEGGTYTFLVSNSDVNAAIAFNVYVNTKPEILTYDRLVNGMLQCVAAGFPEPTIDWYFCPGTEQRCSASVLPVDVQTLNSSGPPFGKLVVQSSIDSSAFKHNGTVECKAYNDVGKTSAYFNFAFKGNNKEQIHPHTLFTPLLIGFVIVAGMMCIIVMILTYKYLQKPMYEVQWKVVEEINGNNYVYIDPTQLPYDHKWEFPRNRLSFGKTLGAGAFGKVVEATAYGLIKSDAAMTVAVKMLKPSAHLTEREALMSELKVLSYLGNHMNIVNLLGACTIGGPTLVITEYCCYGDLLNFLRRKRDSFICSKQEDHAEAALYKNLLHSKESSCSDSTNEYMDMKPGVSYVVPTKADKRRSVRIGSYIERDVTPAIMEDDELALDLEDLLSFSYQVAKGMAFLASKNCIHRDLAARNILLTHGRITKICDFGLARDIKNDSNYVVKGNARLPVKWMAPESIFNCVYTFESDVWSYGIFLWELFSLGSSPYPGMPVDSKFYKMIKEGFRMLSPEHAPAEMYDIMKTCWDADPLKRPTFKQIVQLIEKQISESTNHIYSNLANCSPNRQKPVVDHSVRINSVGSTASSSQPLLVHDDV

SMILES	IC50
COc1cc(-c2cc3c(N4CCC(c5nc(C)c(-c6ccc(C)cc6)[nH]5)CC4)ncnc3[nH]2)ccn1 [P-3088, 6-(2-methoxy-4-pyridyl)-4-[4-[4-methyl-5-(p-tolyl)-1H-imidazol-2-yl]-1-piperidyl]-7H-pyrrolo[2,3-d]pyrimidine]	0.0001 to 1 µM
CCOc1ccc(-c2[nH]c(C3CCN(c4ncnc5[nH]c(-c6ccnc(OC)c6)cc45)CC3)nc2C)cc1C [P-3067, 4-[4-[5-(4-ethoxy-3-methyl-phenyl)-4-methyl-1H-imidazol-2-yl]-1-piperidyl]-6-(2-methoxy-4-pyridyl)-7H-pyrrolo[2,3-d]pyrimidine]	0.0001 to 1 µM
COc1cc(-c2cc3c(N4CCC(C)(c5nc(C)c(-c6ccccc6)[nH]5)CC4)ncnc3[nH]2)ccn1 [P-3033, 6-(2-methoxy-4-pyridyl)-4-[4-methyl-4-(4-methyl-5-phenyl-1H-imidazol-2-yl)-1-piperidyl]-7H-pyrrolo[2,3-d]pyrimidine]	0.0001 to 1 µM
Cc1nc(C2CCN(c3ncnc4[nH]c(-c5ccc(F)cc5)cc34)CC2)[nH]c1-c1ccc(Cl)cc1 [P-3035, 4-[4-[5-(4-chlorophenyl)-4-methyl-1H-imidazol-2-yl]-1-piperidyl]-6-(4-fluorophenyl)-7H-pyrrolo[2,3-d]pyrimidine]	0.0001 to 1 µM
COc1ccc(-c2[nH]c(C3CCN(c4ncnc5[nH]c(-c6ccc(F)cc6)cc45)CC3)nc2C)cc1C [P-3029, 6-(4-fluorophenyl)-4-[4-[5-(4-methoxy-3-methyl-phenyl)-4-methyl-1H-imidazol-2-yl]-1-piperidyl]-7H-pyrrolo[2,3-d]pyrimidine]	0.0001 to 1 µM
COc1ccc(-c2[nH]c(C3CCN(c4ncnc5[nH]c(-c6ccc(C#N)cc6)cc45)CC3)nc2C)cc1C [P-3030, 4-[4-[4-[5-(4-methoxy-3-methyl-phenyl)-4-methyl-1H-imidazol-2-yl]-1-piperidyl]-7H-pyrrolo[2,3-d]pyrimidin-6-yl]benzonitrile]	0.0001 to 1 µM
COc1cc(-c2cc3c(N4CCC(c5nc(C)c(-c6ccc(Cl)cc6)[nH]5)CC4)ncnc3[nH]2)ccn1 [P-3037, 4-[4-[5-(4-chlorophenyl)-4-methyl-1H-imidazol-2-yl]-1-piperidyl]-6-(2-methoxy-4-pyridyl)-7H-pyrrolo[2,3-d]pyrimidine]	0.0001 to 1 µM
Cc1ccc(-c2[nH]c(C3CCN(c4ncnc5[nH]c(-c6ccc(F)cc6)cc45)CC3)nc2C)cc1 [P-3062, 6-(4-fluorophenyl)-4-[4-[4-methyl-5-(p-tolyl)-1H-imidazol-2-yl]-1-piperidyl]-7H-pyrrolo[2,3-d]pyrimidine]	0.0001 to 1 µM
CCc1ccc(-c2[nH]c(C3CCN(c4ncnc5[nH]c(-c6ccc(C#N)cc6)cc45)CC3)nc2C)cc1 [P-3061, 4-[4-[4-[5-(4-ethylphenyl)-4-methyl-1H-imidazol-2-yl]-1-piperidyl]-7H-pyrrolo[2,3-d]pyrimidin-6-yl]benzonitrile]	0.0001 to 1 µM
Cc1nc(C2CCN(c3ncnc4[nH]c(-c5ccc(C#N)cc5)cc34)CC2)[nH]c1-c1ccccc1 [P-3047, 4-[4-[4-(4-methyl-5-phenyl-1H-imidazol-2-yl)-1-piperidyl]-7H-pyrrolo[2,3-d]pyrimidin-6-yl]benzonitrile]	1 to 10 µM
CCC1(c2nc(C)c(-c3ccc(OC)c(C)c3)[nH]2)CCN(c2ncnc3[nH]c(-c4ccc(F)cc4)cc23)CC1 [P-3056, 4-[4-ethyl-4-[5-(4-methoxy-3-methyl-phenyl)-4-methyl-1H-imidazol-2-yl]-1-piperidyl]-6-(4-fluorophenyl)-7H-pyrrolo[2,3-d]pyrimidine]	0.0001 to 1 µM
Cc1nc(C2CCN(c3ncnc4[nH]c(-c5cnn(C)c5)cc34)CC2)[nH]c1-c1ccccc1 [P-3046, 4-[4-(4-methyl-5-phenyl-1H-imidazol-2-yl)-1-piperidyl]-6-(1-methylpyrazol-4-yl)-7H-pyrrolo[2,3-d]pyrimidine]	0.0001 to 1 µM
CNC(=O)c1cccc(-c2cc3c(N4CCC(c5nc(C)c(-c6ccccc6)[nH]5)CC4)ncnc3[nH]2)c1 [P-3049, N-methyl-3-[4-[4-(4-methyl-5-phenyl-1H-imidazol-2-yl)-1-piperidyl]-7H-pyrrolo[2,3-d]pyrimidin-6-yl]benzamide]	1 to 10 µM
